One test concerns the target T1, M1 muscarinic receptor (Rattus norvegicus, UniProt P08482).
T1 sequence (P08482 1-460): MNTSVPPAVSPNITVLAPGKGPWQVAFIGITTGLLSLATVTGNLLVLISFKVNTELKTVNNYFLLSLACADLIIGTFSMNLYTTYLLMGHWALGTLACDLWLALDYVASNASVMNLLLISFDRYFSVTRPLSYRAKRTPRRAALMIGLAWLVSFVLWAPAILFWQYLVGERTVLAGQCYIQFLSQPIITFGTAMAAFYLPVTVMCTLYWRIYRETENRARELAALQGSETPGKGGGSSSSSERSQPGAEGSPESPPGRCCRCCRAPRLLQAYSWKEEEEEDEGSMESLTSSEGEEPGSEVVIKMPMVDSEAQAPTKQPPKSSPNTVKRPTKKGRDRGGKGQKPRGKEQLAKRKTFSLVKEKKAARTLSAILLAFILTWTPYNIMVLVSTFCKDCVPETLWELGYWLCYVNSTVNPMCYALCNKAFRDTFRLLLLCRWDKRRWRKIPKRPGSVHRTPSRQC
Description: M1 receptor binding ([^3 H]-pirenzepine). Also noted: species or system rat (male Sprague-Dawley). The following applies: Table 1; rat brain tissue, [^3 H]PZ 0.5 nM; read-out: ^3 H-Pirenzepine M1 IC50. The procedure:
Compounds are tested for their ability to affect M1 muscarinic binding through use of [^3 H]-pirenzepine ([^3 H]PZ) as a prototypic M1 receptor ligand. Male Sprague-Dawley (Charles River) rats are used. Dose selection is typically in the concentration range of 10^-9 to 10^-4 M. Test and reference compounds are dissolved and diluted in water or ethanol and are then added to the assay buffer. The appropriate vehicle is added to the assay buffer for control testing.
The rats (approximately 300 gm body weight) have free access to food and water and are housed in groups of four to six. On the test day, the rats are euthanized by decapitation and brain tissue is dissected and homogenized using a hand-held teflon-coated pestle, in 20 volumes of 0.32M sucrose (20 strokes at 4° C.). After centrifugation (747×g for 10 minutes at 4° C.), the resultant supernatant is decanted and recentrifuged (18677×g for 20 minutes at 4° C.). The resultant pellet is resuspended in the original volume of 0.32M sucrose and frozen. After thawing, the suspension is diluted (1:1 v/v) with 10 mM Na2 HPO4 /KH2 PO4 buffer (pH=7.4). [^3 H]PZ (0.5 nM, 0.04 μCi) is then incubated with a 100 μl sample of the tissue suspension in the above buffer (1 ml final volume, including a 10 μl sample of test compound or vehicle). […] After 60 minutes of incubation at 25° C. (in the dark), the binding is terminated by vacuum filtration onto Whatman GF/B filters (pre-soaked for 60 minutes in 0.1% (w/v) polyethylenimine to reduce non-specific binding). After three washes with the previously mentioned buffer (4° C., 3 ml/wash), the vacuum is allowed to run for two minutes before the filter-trapped radioactivity is assayed by liquid scintillation spectroscopy.
Data are presented as the percent inhibition ([control-test]/control×100%) or enhancement ([test-control]/control×100%) of [^3 H]PZ binding by the test or reference compound. The IC50 value (the drug concentration which causes a 50% inhibition of specific [^3 H]PZ binding) is calculated through the use of the EDOSE program (with probit transformation written by a person for use in STAT80). Increases in [^3 H]PZ are reported as percent increase (versus control) for a given test drug concentration.

The target in test [1] is T2, M2 receptors (Rattus norvegicus, UniProt P10980).
T2 sequence (P10980 1-466): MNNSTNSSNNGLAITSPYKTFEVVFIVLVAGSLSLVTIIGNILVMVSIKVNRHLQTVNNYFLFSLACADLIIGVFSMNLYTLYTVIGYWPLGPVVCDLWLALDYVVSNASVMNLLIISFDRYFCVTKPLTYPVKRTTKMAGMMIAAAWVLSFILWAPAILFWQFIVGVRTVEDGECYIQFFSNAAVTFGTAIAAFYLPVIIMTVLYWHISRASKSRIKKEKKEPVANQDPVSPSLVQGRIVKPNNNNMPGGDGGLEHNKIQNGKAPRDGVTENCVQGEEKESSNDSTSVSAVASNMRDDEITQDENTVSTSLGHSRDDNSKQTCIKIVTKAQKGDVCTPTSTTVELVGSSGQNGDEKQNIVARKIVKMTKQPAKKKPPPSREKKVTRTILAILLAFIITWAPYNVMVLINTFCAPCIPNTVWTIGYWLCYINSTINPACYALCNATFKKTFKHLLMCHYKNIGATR
Description: biochemical. It is filed as binding. The settings on record: read-out: ^3 H-QNB M2 IC50.

Test [2] deals with M2 receptors. Nature of the test: biochemical. It is filed as binding. The settings on record: Table 1; ratio of M2 IC50 to M1 IC50.
The test system of test [3] is scopolamine-induced hyperactivity, a proposed muscarinic M1 -mediated effect. Nature of the test: Scopolamine-induced hyperactivity (locomotor activity). It is filed as in vivo, rat. Also noted: Total activity: unit not given here. The protocol:
Compounds were evaluated for the ability to attenuate scopolamine-induced hyperactivity, a proposed muscarinic M1 -mediated effect. Animals were permitted to habituate for 30 minutes in locomotor activity chambers (Digiscan, Omnitech; Columbus, Ohio) in which infrared detectors were used to measure movement in 3 axes. The animals were then injected i.p. with vehicle alone, scopolamine alone (1.7 mg/kg) or both scopolamine and one dose of the test compound. Animals were then replaced in the chambers and locomotor activity was measured for an additional 1 hour period. Total activity measures (vertical+horizintal movements) were collected and statistically analyzed in four 15 minute periods.

Test [4] deals with Scopolamine-impaired Radial Arm Maze. Description: Scopolamine-impaired Radial Arm Maze. Format: in vivo, rat (male Sprague-Dawley). An excerpt: Male Sprague-Dawley (Charles River) rats on a 23-hour food deprivation schedule were trained in an eight arm radial maze with all arms baited. Each session consisted of two maze exposures, with a time limit of 300 seconds for each exposure. After four correct choices (first exposure), each animal was removed from the maze for one hour, then returned with only the remaining four arms baited (second exposure). Choice errors, consisting of delay errors (re-entry into any of the four arms chosen during the first exposure) and current errors (re-entry into any of the four arms chosen during the second exposure), as well as total errors were recorded. Durations for each exposure were also recorded. Statistical analysis was performed using a one-way ANOVA with Dunnett's t-test comparisons. Scopolamine (0.3 mg/kg, S.C.) and the compound of Example 1 (3,10 mg/kg, I.P,.) were administrered simultaneously 30 minutes prior to the test. All compounds were solubilized in phosphate buffered saline.

The subject of test [5] is scopolamine-induced memory loss. The settings on record: cited from earlier work.
The subject of the next test is memory loss. The following applies: cat, rat, and monkey; muscarinic antagonist; cited from earlier work.
In test [6] the test system is scopolamine-induced memory loss. The following applies: rats; cited from earlier work.
The subject of test [7] is Alzheimer's patients and healthy elderly patients. The following applies: cited from earlier work; for clinical efficacy: human, in vivo.
The test system of test [8] is scopolamine-induced memory loss. The settings on record: monkeys; cited from earlier work.
[9] abbreviates: scopolamine + Example 1 3.0 mg/kg I.P., N=11.
Where [10] appears, read: scopolamine + Example 1 10.0 mg/kg I.P., N=12.
Where [11] appears, read: scopolamine alone 0.3 mg/kg S.C., N=12.

By IC50 is commonly meant the concentration needed to halve the response being measured.

Read-outs that look alike come from different tables or passages of the source.

For the molecule `Cc1cc(NCCCN2CCOCC2)nc2ccccc12` [Example 1, 4-Methyl-N-[3-(4-morpholinyl)propyl]-2-quinolinamine (E)-2-butenedioate 1:1 hydrate], the IC50 at M1 muscarinic receptor was 1.2 µM; on M2 receptors [1], 69.3 µM. Besides, the M2/M1 in the test on M2 receptors [2] was found to be 58. Moreover, the “attenuation of scopolamine hyperactivity” value in [3] (30 and 54 mg/kg i.p., 30 and 45 minutes post-injection) was “produced an attenuation at 30 and 45 minutes post-injection that did not differ from the scopolamine-or vehicle-only controls”. For the same molecule, in [3] (Rattus norvegicus, ip, attenuation of scopolamine (1.7 mg/kg) hyperactivity, i.p., read-out: minimum effective dose), the minimal effective dose turned out to be 30 mg/kg. In test [3] (relative to oxotremorine), the “in vivo M1 agonist activity, less effective than oxotremorine” value is given as 100 fold. The Total activity amounted to 3792 in test [3] (scopolamine + Example 1 30 mg/kg i.p., 15 min, N=10); 2069 in test [3] (scopolamine + Example 1 30 mg/kg i.p., 30 min, N=10); 1839 in [3] (scopolamine + Example 1 30 mg/kg i.p., 45 min, N=10); 1697 in test [3] (scopolamine + Example 1 30 mg/kg i.p., 60 min, N=10); 3602 in test [3] (scopolamine + Example 1 54 mg/kg i.p., 15 min, N=10); 1899 in test [3] (scopolamine + Example 1 54 mg/kg i.p., 30 min, N=10). In addition, the Total activity in test [3] (scopolamine + Example 1 54 mg/kg i.p., 45 min, N=10) turned out to be 1722; in test [3] (scopolamine + Example 1 54 mg/kg i.p., 60 min, N=10) it was 1535. Moreover, the “effect on scopolamine impairment” value in test [4] (3.0 mg/kg I.P.) was “non-significantly reduced this scoplamine impairment”; in test [4] (10 mg/kg I.P.), “had no effect”. The “effect on increased time measures caused by scopolamine” value in [4] (3, 10 mg/kg I.P.) is listed as “largely unaffected”. The “cognitive impairments seen after scopolamine treatment (conclusion)” value in test [4] (rat, in vivo) was “can reduce the cognitive impairments seen after scopolamine treatment”. Further, the “Mean Error, Current” value in test [4] (setting [9]) is 0.55; in [4] (setting [10]), 0.33. For the same molecule, the results for the “Mean Error, Delay” value in [4] (setting [9]) and in test [4] (setting [10]) were 1.77 and 2.75, respectively. In addition, the “Mean Error, Total” value was found to be 1.14 in test [4] (setting [9]) and 1.54 in test [4] (setting [10]). Besides, the “Mean Time 1.4” value in test [4] (setting [9]) stood at 90.10 s; in [4] (setting [10]) it was 113.8 s. Besides, the “Mean Time 5-” value in [4] (setting [9]) was 121.73 s; in [4] (setting [10]), 148.1 s. The results for the “Mean Time Total” value in test [4] (setting [9]) and in test [4] (setting [10]) were 105.91 s and 130.92 s, respectively.
Take `CN1[C@@H]2C[C@@H](OC(=O)[C@H](CO)c3ccccc3)C[C@H]1[C@@H]1O[C@@H]12` [Scopolamine]: the “effect on total activity” value in test [3] (scopolamine 1.7 mg/kg, 15, 30, 45 and 60 minutes post-injection) is given as “significantly elevated total activity at all four time points”. In addition, the Total activity in [3] (scopolamine alone 1.7 mg/kg i.p., first experiment (Example 1), 15 min, N=9) worked out at 4349; in test [3] (scopolamine alone 1.7 mg/kg i.p., first experiment (Example 1), 30 min, N=9), 2816; in test [3] (scopolamine alone 1.7 mg/kg i.p., first experiment (Example 1), 45 min, N=9), 2638; in [3] (scopolamine alone 1.7 mg/kg i.p., first experiment (Example 1), 60 min, N=9), 1858; in test [3] (scopolamine alone 1.7 mg/kg i.p., second experiment (oxotremorine), 15 min, N=9), 5486; in [3] (scopolamine alone 1.7 mg/kg i.p., second experiment (oxotremorine), 30 min, N=9), 4720. Also, the Total activity in test [3] (scopolamine alone 1.7 mg/kg i.p., second experiment (oxotremorine), 45 min, N=9) was found to be 3718; in test [3] (scopolamine alone 1.7 mg/kg i.p., second experiment (oxotremorine), 60 min, N=9) it was 3510. In addition, the “effect on delay and total errors” value in [4] (scopolamine 0.3 mg/kg S.C., compared to vehicle) was “produced a significant impairment in both delay and total errors”. Moreover, the “Mean Error, Current” value in test [4] (setting [11]) was 1.0. Further, the “Mean Error, Delay” value in [4] (setting [11]) is given as 2.80. Further, the “Mean Error, Total” value in test [4] (setting [11]) came to 1.90. Besides, the “Mean Time 1.4” value in test [4] (setting [11]) was found to be 87.25 s. Further, the “Mean Time 5-” value in test [4] (setting [11]) turned out to be 169.80 s. Further, the “Mean Time Total” value in test [4] (setting [11]) turned out to be 128.50 s. Moreover, in test [5] (muscarinic antagonist), the “memory loss in normal humans” value is given as “can be artificially induced”. Moreover, the “memory loss in animals” value with memory loss was “can be artificially induced”.
As for `COC(=O)C1=CCCN(C)C1` [arecoline], in [6], the “reversal of scopolamine-induced deficit” value is “can be reversed”. The clinical efficacy result in [7] was “neither physostigmine nor arecoline have clinical efficacy due to undesirable side-effects, a short duration of action and a narrow active dose range”.
Consider `CNC(=O)Oc1ccc2c(c1)[C@]1(C)CCN(C)[C@@H]1N2C` [physostigmine], for which the “reversal of scopolamine-induced deficit” value in test [5] (humans) and in test [8] was “can be reversed” each time. In addition, in [7], the clinical efficacy result was “neither physostigmine nor arecoline have clinical efficacy due to undesirable side-effects, a short duration of action and a narrow active dose range”.
In the case of lecithin, the “improvement on cognitive tests” value in test [7] (Alzheimer's patients and healthy elderly patients) is “No significant improvement was observed on any cognitive test”.
